Assay results published in patent US7517872B2, “Compounds for the treatment of hepatitis C” (Bristol-Myers Squibb Company, priority 2007, dated 2009).
Where two headings read alike, the source gives them in different places.

Columns and labels:
[1] = system: HCV replicon cells; test: HCV replicon FRET assay; assay type: cell-based; conditions: Hepatitis C virus
Excerpt: FRET Assay Preparation. To perform the HCV FRET screening assay, 96-well cell culture plates were used. The FRET peptide (Anaspec, Inc.) (Taliani et al., Anal. Biochem. 1996, 240, 60-67) contains a fluorescence donor, EDANS, near one end of the peptide and an acceptor, DABCYL, near the other end. The fluorescence of the peptide is quenched by […] resonance energy transfer (RET) between the donor and the acceptor, but as the NS3 protease cleaves the peptide the products are released from RET quenching and the fluorescence of the donor becomes apparent. The assay reagent was made as follows: 5× cell Luciferase cell culture lysis reagent from Promega (#E153A) diluted to 1× with dH2O, NaCl added to 150 mM final, the FRET peptide diluted to 20 μM final from a 2 mM stock.
To prepare plates, HCV replicon cells, with or without a Renilla luciferase reporter gene, were trypsinized and placed into each well of a 96-well plate with titrated test compounds added in columns 3 through 12; columns 1 and 2 contained a control compound (HCV protease inhibitor), and the bottom row contained cells without compound. The plates were then placed in a CO2 incubator at 37° C.
Assays. Subsequent to addition of the test compounds described above (FRET Assay Preparation), at various times the plate was removed and Alamar blue solution (Trek Diagnostics, #00-100) was added per well as a measure of cellular toxicity. After reading in a Cytoflour 4000 instrument (PE Biosystems), plates were rinsed with PBS and then used for FRET assay by the addition of 30 ul of the FRET peptide assay reagent described above (FRET Assay Preparation) per well. The plate was then placed into the Cytoflour 4000 instrument which had been set to 340 excite/490 emission, automatic mode for 20 cycles and the plate read in a kinetic mode. Typically, the signal to noise using an endpoint analysis after the reads was at least three-fold. Alternatively, after Alamar blue reading, plates were rinsed with PBS, 50 ul of DMEM (high glucose) without phenol red was added and plates were then used for luciferase assay using the Promega Dual-Glo Luciferase Assay System.
Compound analysis was determined by quantification of the relative HCV replicon inhibition and the relative cytotoxicity values. To calculate cytoxicity values, the average Alamar Blue fluorescence signals from the control wells were set as 100% non-toxic. The individual signals in each of the compound test wells were then divided by the average control signal and multiplied by 100% to determine […]. To calculate the HCV replicon inhibition values, an average background value was obtained from the two wells containing the highest amount of HCV protease inhibitor at the end of the assay period. These numbers were similar to those obtained from naive Huh-7 cells.
The background numbers were then subtracted from the average signal obtained from the control wells and this number was used as 100% activity. The individual signals in each of the compound test wells were then divided by the averaged control values after background subtraction and multiplied by 100% to determine percent activity. EC50 values for a protease inhibitor titration were calculated as the concentration which caused a 50% reduction in FRET or luciferase activity. The two numbers generated for the compound plate, percent cytoxicity and percent activity were used to determine compounds of interest for further analysis.

[2] = target: T1, HCV NS5B RdRp genotype 1b (Hepatitis C virus genotype 1b, UniProt Q9WMX2); test: Modified HCV NS5B RdRp enzyme assay (preincubation protocol); assay type: biochemical
T1 construct: The protein was expressed with an 18 amino acid C-terminal truncation to enhance the solubility; made in house; host or cells: E. coli BL21(DE3), pET21a vector
T1 sequence (Q9WMX2 2420-2992): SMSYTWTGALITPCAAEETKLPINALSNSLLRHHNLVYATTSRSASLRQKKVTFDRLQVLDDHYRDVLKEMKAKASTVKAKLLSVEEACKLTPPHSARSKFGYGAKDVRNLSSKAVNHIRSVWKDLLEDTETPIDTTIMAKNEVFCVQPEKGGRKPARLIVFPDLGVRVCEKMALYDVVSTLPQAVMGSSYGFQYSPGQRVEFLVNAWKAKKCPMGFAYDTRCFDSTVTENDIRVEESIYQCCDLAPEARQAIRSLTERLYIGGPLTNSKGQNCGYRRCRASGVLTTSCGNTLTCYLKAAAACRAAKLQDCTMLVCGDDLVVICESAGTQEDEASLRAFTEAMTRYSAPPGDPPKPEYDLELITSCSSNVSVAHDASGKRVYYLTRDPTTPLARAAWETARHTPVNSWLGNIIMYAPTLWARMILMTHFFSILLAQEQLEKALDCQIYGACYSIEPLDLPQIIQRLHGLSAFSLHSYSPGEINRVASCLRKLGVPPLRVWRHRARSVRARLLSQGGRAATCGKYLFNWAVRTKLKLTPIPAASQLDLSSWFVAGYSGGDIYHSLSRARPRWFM
Procedure: HCV NS5B RdRp cloning, expression, and purification. The cDNA encoding the NS5B protein of HCV, genotype 1b, was cloned into the pET21a expression vector. The protein was expressed with an 18 amino acid C-terminal truncation to enhance the solubility. The E. coli competent cell line BL21(DE3) was used for expression of the protein. Cultures were grown at 37° C. for ˜4 hours until the cultures reached an optical density of 2.0 at 600 nm. The cultures were cooled to 20° C. and induced with 1 mM IPTG. Fresh ampicillin was added to a final concentration of 50 μg/ml and the cells were grown overnight at 20° C.
Cell pellets (3L) were lysed for purification to yield 15-24 mgs of purified NS5B. The lysis buffer consisted of 20 mM Tris-HCl, pH 7.4, 500 mM NaCl, 0.5% triton X-100, 1 mM DTT, 1 mM EDTA, 20% glycerol, 0.5 mg/ml lysozyme, 10 mM MgCl2, 15 ug/ml deoxyribonuclease I, and Complete TM protease inhibitor tablets (Roche). After addition of the lysis buffer, frozen cell pellets were resuspended using a tissue homogenizer. To reduce the viscosity of the sample, aliquots of the lysate were sonicated on ice using a microtip attached to a Branson sonicator. The sonicated lysate was centrifuged at 100,000×g for 1 hr at 4° C. and filtered through a 0.2 μm filter unit (Corning).
The protein was purified using three sequential chromatography steps: Heparin sepharose CL-6B, polyU sepharose 4B, and Hitrap SP sepharose (Pharmacia). The chromatography buffers were identical to the lysis buffer but contained no lysozyme, deoxyribonuclease I, MgCl2 or protease inhibitor and the NaCl concentration of the buffer was adjusted according to the requirements for charging the protein onto the column. Each column was eluted with a NaCl gradient which varied in length from 5-50 column volumes depending on the column type. After the final chromatography step, the resulting purity of the enzyme is >90% based on SDS-PAGE analysis. The enzyme was aliquoted and stored at −80° C.
Standard HCV NS5B RdRp enzyme assay. HCV RdRp genotype 1b assays were run in a final volume of 60 μl in 96 well plates (Costar 3912). The assay buffer is composed of 20 mM Hepes, pH 7.5, 2.5 mM KCl, 2.5 mM MgCl2, 1 mM DTT, 1.6 U RNAse inhibitor (Promega N2515), 0.1 mg/ml BSA (Promega R3961), and 2% glycerol. All compounds were serially diluted (3-fold) in DMSO and diluted further in water such that the final concentration of DMSO in the assay was 2%. HCV RdRp genotype 1b enzyme was used at a final concentration of 28 nM. A polyA template was used at 6 nM, and a biotinylated oligo-dT12 primer was used at 180 nM final concentration. Template was obtained commercially (Amersham 27-4110). Biotinylated primer was prepared by Sigma Genosys. 3H-UTP was used at 0.6 μCi (0.29 μM total UTP). Reactions were initiated by the addition of enzyme, incubated at 30° C. for 60 min, and stopped by adding 25 μl of 50 mM EDTA containing SPA beads (4 μg/μl, Amersham RPNQ 0007). Plates were read on a Packard Top Count NXT after >1 hr incubation at room temperature.
Modified HCV NS5B RdRp enzyme assay. A modified enzyme assay was performed essentially as described for the standard enzyme assay except for the following: The biotinylated oligo dT12 primer was precaptured on streptavidin-coated SPA beads by mixing primer and beads in assay buffer and incubating at room temperature for one hour. Unbound primer was removed after centrifugation. The primer-bound beads were resuspended in 20 mM Hepes buffer, pH 7.5 and used in the assay at final concentrations of 20 nM primer and 0.67 μg/μl beads. Order of addition in the assay: enzyme (14 nM) was added to diluted compound followed by the addition of a mixture of template (0.2 nM), 3H-UTP (0.6 μCi, 0.29 μM), and primer-bound beads, to initiate the reaction; concentrations given are final. Reactions were allowed to proceed for 4 hours at 30° C.
IC50 values for compounds were determined using seven different [I]. […]

[3] = HCV replicon cells, FRET assay, read-out: EC50
[4] = HCV NS5B RdRp genotype 1b, preincubation protocol, read-out: IC50

## COC(=O)C1=Cc2cc(OC)ccc2-c2c(C3CCCCC3)c3ccc(C(=O)NS(=O)(=O)N(C)C)nc3n2C1
[1]; [3]
  EC50: 500 to 10000 nM
[2]; [4]
  IC50: 1 to 500 nM

## COc1ccc2c(c1)C=C(C(=O)N1C[C@@H](C)O[C@@H](C)C1)Cn1c-2c(C2CCCCC2)c2ccc(C(=O)NS(=O)(=O)N(C)C)nc21
[1]; [3]
  EC50: > 500 nM
[2]; [4]
  IC50: 1 to 500 nM

## COc1ccc2c(c1)C=C(C(=O)N1C[C@@H](C)N(C)[C@@H](C)C1)Cn1c-2c(C2CCCCC2)c2ccc(C(=O)NS(=O)(=O)N(C)C)nc21
[1]; [3]
  EC50: 1 to 500 nM
[2]; [4]
  IC50: 1 to 500 nM

## COc1ccc2c(c1)[C@@H]1C[C@]1(C(=O)N1[C@@H]3CC[C@H]1CN(C)C3)Cn1c-2c(C2CCCCC2)c2ccc(C(=O)N(C)S(=O)(=O)N(C)C)nc21
[1]
  EC50: > 100 nM
[2]
  IC50: 500 to 10000 nM

## COc1ccc2c(c1)C=C(C(=O)N1C[C@@H](C)O[C@@H](C)C1)Cn1c-2c(C2CCCCC2)c2cccnc21
[1]; [3]
  EC50: > 370 nM
[2]; [4]
  IC50: 500 to 10000 nM

## CNS(=O)(=O)NC(=O)c1ccc2c(C3CCCCC3)c3n(c2n1)CC(C(=O)N1C[C@@H](C)O[C@@H](C)C1)=Cc1cc(OC)ccc1-3
[1]; [3]
  EC50: 500 to 10000 nM
[2]; [4]
  IC50: 1 to 500 nM

## COc1ccc2c(c1)[C@@H]1C[C@]1(C(=O)N1[C@@H]3CC[C@H]1CN(C)C3)Cn1c-2c(C2CCCCC2)c2ccc(C(=O)NS(=O)(=O)N(C)C)nc21
[1]
  EC50: > 100 nM
[2]
  IC50: 1 to 500 nM
